Measurements from patent US20260042764A1, “COMPOSITIONS AND METHODS FOR INHIBITION OF KRAS” (TheRas, Inc., priority 2022, published 2026).

Tests used:
[1] = target: T1, Avi-KRAS G12R (1-169) GppNHp/RAF1 RBD-3xFLAG (52-151) (Homo sapiens, UniProt P01116, G12R); experiment: Raf1-KRAS G12R-GppNHP disruption HTRF assay (Biological Example 1); type: binding
T1 construct: Avi-KRAS G12R (1-169)
Outline: (§1)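 Using HTRF, the loss of KRAS–effector RAF1 complex was quantified in 50 mM Tris pH 7.5 buffer with 100 mM NaCl and 0.1% BSA. The protein step and reagent step ran 1 h each at room temperature. Activity normalized with DMSO taken as 100%.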

[2] = target: T2, Avi-KRAS G12V (1-169) GppNHp/RAF1 RBD-3xFLAG (52-151) (Homo sapiens, UniProt P01116, G12V); experiment: Raf1-KRAS G12V-GppNHP disruption HTRF assay (Biological Example 1); type: binding
T2 construct: Avi-KRAS G12V (1-169)
T2 sequence (P01116 1-169 isoform P01116-2 G12V): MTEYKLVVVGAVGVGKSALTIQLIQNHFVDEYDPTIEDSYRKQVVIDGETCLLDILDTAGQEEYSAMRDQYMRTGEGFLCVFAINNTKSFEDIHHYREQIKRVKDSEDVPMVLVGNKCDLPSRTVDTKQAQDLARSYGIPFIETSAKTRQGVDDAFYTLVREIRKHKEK
Outline: as §1

[3] = test system: GP2d cells (KRAS G12D); experiment: Cell-based pERK HTRF assay in GP2d cell (Biological Example 2); conditions: GP2d (KRAS G12D) cells
Outline: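 HTRF read-out of pERK (excitation 320 nm, emission 615 nm) after lysates sat 4–24 h at room temperature with Eu cryptate and d2 antibodies.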

[4] = target: T3, Avi-KRAS G12D (2-169) GTP/RAF1 RBD-3xFLAG (51-131) (Homo sapiens, UniProt P01116, G12D); experiment: Raf1-KRAS G12D-GTP disruption HTRF assay (Biological Example 3); type: binding; conditions: KRAS G12D, GTP-loaded
T3 construct: Avi-KRAS G12D (2-169)
T3 sequence (P01116 2-169 isoform P01116-2 G12D): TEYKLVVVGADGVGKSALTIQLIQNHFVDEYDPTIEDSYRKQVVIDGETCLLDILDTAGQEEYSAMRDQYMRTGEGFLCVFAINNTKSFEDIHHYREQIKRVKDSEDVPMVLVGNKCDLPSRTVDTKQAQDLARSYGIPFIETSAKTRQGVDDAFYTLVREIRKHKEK
Outline: (§2)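 HTRF PPI read-out (ex 320 nm, em 615 nm) after 1 h RT incubation with shaking; data as % activity vs DMSO (100%), IC50 from curve fit. Complex 50 nM, RBD reagent 75 nM; compound 30-0.005 μM, 3-fold.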

[5] = target: T4, Avi-KRAS G12V (2-169) GTP/RAF1 RBD-3xFLAG (51-131) (Homo sapiens, UniProt P01116, G12V); experiment: Raf1-KRAS G12V-GTP disruption HTRF assay (Biological Example 3); type: binding; conditions: KRAS G12V, GTP-loaded
T4 construct: Avi-KRAS G12V (2-169)
T4 sequence (P01116 2-169 isoform P01116-2 G12V): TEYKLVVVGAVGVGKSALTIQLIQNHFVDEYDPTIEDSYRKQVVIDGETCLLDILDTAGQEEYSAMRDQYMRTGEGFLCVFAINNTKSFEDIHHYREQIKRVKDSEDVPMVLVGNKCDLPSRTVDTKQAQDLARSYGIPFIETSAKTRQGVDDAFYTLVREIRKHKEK
Outline: as §2

[6] = target: T5, Avi-KRAS WT (2-169) GTP/RAF1 RBD-3xFLAG (51-131) (Homo sapiens, UniProt P01116); experiment: Raf1-KRAS WT-GTP disruption HTRF assay (Biological Example 3); type: binding; conditions: KRAS WT, GTP-loaded
T5 construct: Avi-KRAS WT (2-169)
T5 sequence (P01116 2-169 isoform P01116-2): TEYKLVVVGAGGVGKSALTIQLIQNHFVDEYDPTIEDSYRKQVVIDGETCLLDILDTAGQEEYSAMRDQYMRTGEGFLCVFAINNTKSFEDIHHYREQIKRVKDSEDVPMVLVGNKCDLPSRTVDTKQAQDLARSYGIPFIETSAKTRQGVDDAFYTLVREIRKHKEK
Outline: as §2

[7] = KRAS G12R, GppNHp-loaded, class symbols
[8] = KRAS G12V, GppNHp-loaded, class symbols
[9] = KRAS G12R, GppNHp-loaded, Table 11
[10] = KRAS G12V, GppNHp-loaded, Table 11

T1 sequence (P01116 1-169 isoform P01116-2 G12R): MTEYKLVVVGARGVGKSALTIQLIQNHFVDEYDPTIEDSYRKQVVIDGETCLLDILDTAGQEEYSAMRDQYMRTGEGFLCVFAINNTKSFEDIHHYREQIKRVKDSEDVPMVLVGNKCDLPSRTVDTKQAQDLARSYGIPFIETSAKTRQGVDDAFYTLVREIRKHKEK

| Compound | IC50 ([1]; KRAS G12R-GppNHp/RAF1 RBD HTRF) [nM] | IC50 ([2]; KRAS G12V-GppNHp/RAF1 RBD HTRF) [nM] | IC50 ([3]; GP2d) [nM] | IC50 [4] [nM] | IC50 [5] [nM] | IC50 [6] [nM] | IC50 [1, 7] [nM] | IC50 [2, 8] [nM] | IC50 ([3]; GP2d, pERK HTRF, class symbols) [nM] | IC50 ([3]; GP2d, pERK HTRF) [nM] | also measured |
| --- | --- | --- | --- | --- | --- | --- | --- | --- | --- | --- | --- |
| C[C@@H]1[C@H](N(C)c2nc(OC[C@@]34CCCN3C[C@H](F)C4)nc3c(F)c(-c4ccc(F)c5sc(N)c(C#N)c45)c(C(F)(F)F)cc23)CCN1C(=O)C1CC1 (atropisomer, axis not shown) [Compound 333] | < 100 | 100 to 1000 | < 100 | 100 to 1000 | 100 to 1000 | 100 to 1000 |  |  |  |  | IC50 ([3]; pERK HTRF): < 100 nM |
| CCC(=O)N1CC[C@@H](N(C)c2nc(OC[C@@]34CCCN3C[C@H](F)C4)nc3c(F)c(-c4ccc(F)c5sc(N)c(C#N)c45)c(C(F)(F)F)cc23)[C@H]1C (atropisomer, axis not shown) [Compound 335] | < 100 | < 100 | < 100 | 100 to 1000 | 100 to 1000 | 100 to 1000 |  |  |  |  | IC50 ([3]; pERK HTRF): < 100 nM |
| CCN(c1nc(OC[C@@]23CCCN2C[C@H](F)C3)nc2c(F)c(-c3ccc(F)c4sc(N)c(C#N)c34)c(C(F)(F)F)cc12)[C@H]1CCN(C(=O)[C@H]2CCO2)C1 (atropisomer, axis not shown) [Compound 577] |  |  | < 100 | ≤ 100 | ≤ 100 | ≤ 100 | < 100 | < 100 | < 100 |  |  |
| CCN(c1nc(OC[C@@]23CCCN2C[C@H](F)C3)nc2c(F)c(-c3ccc(F)c4sc(N)c(C#N)c34)c(C(F)(F)F)cc12)[C@H]1CCN(C(=O)C2CC2)[C@@H]1C (atropisomer, axis not shown) [Compound 579] |  |  | < 100 | ≤ 100 | 100 to 1000 | 100 to 1000 | < 100 | < 100 | < 100 |  |  |
| CCN(c1nc(OC[C@@]23CCCN2C[C@H](F)C3)nc2c(F)c(-c3ccc(F)c4sc(N)c(C#N)c34)c(C(F)(F)F)cc12)[C@H]1CCN(C(=O)c2ncco2)C1 (atropisomer, axis not shown) [Compound 584] |  |  |  |  |  |  | < 100 | < 100 | < 100 |  |  |
| CCN(c1nc(OC[C@@]23CCCN2C[C@H](F)C3)nc2c(F)c(-c3ccc(F)c4sc(N)c(C#N)c34)c(C(F)(F)F)cc12)[C@H]1C[C@@H](C)N(C(=O)C2COC2)C1 (atropisomer, axis not shown) [Compound 586] |  |  | < 100 | 100 to 1000 | 100 to 1000 | 100 to 1000 | < 100 | 100 to 1000 | < 100 |  |  |
| C[C@H](c1cccnc1N)N(C)c1nc(OC[C@@]23CCCN2C[C@H](F)C3)nc2c(F)c(-c3ccc(F)c4sc(N)c(C#N)c34)c(C(F)(F)F)cc12 (atropisomer, axis not shown) [Compound 600] |  |  | < 100 | ≤ 100 | ≤ 100 | 100 to 1000 | < 100 | < 100 | < 100 |  |  |
| CCN(c1nc(OC[C@@]23CCCN2C[C@H](F)C3)nc2c(F)c(-c3ccc(F)c4sc(N)c(C#N)c34)c(C(F)(F)F)cc12)[C@H]1CCN(C(=O)[C@@H]2CCO2)C1 (atropisomer, axis not shown) [Compound 603] |  |  | < 100 | ≤ 100 | ≤ 100 | 100 to 1000 | < 100 | < 100 | < 100 |  |  |
| CCN(c1nc(OC[C@@]23CCCN2C[C@H](F)C3)nc2c(F)c(-c3ccc(F)c4sc(N)c(C#N)c34)c(C(F)(F)F)cc12)[C@H]1C[C@@H]2CN(C)C(=O)N2C1 (atropisomer, axis not shown) [Compound 605] |  |  | < 100 | 100 to 1000 | 100 to 1000 | 100 to 1000 | < 100 | 100 to 1000 | < 100 |  |  |
| CCN(c1nc(OC[C@@]23CCCN2C[C@H](F)C3)nc2c(F)c(-c3ccc(F)c4sc(N)c(C#N)c34)c(C(F)(F)F)cc12)[C@H]1CCN(C(=O)N2CC(F)C2)C1 (atropisomer, axis not shown) [Compound 606] |  |  | < 100 | ≤ 100 | ≤ 100 | 100 to 1000 | < 100 | < 100 | < 100 |  |  |
| CCN(c1nc(OC[C@@]23CCCN2C[C@H](F)C3)nc2c(F)c(-c3ccc(F)c4sc(N)c(C#N)c34)c(C(F)(F)F)cc12)[C@H]1C[C@H](C)N(C(=O)[C@@H]2CC2(F)F)C1 (atropisomer, axis not shown) [Compound 751] |  |  |  |  |  |  | < 100 | < 100 | < 100 |  |  |
| N#Cc1c(N)sc2c(F)ccc(-c3c(C(F)(F)F)cc4c(N5CC6CC5CO6)nc(OC[C@@]56CCCN5C[C@H](F)C6)nc4c3F)c12 (stereo partly drawn) [Compound 147] |  |  |  |  |  |  |  |  |  | < 100 | IC50 [1, 9]: 100 to 1000 nM; IC50 [2, 10]: 100 to 1000 nM |
| N#Cc1c(N)sc2c(F)ccc(-c3c(C(F)(F)F)cc4c(N5CCC[C@@H](O)C5)nc(OC[C@@]56CCCN5C[C@H](F)C6)nc4c3F)c12 [Compound 234] |  |  |  |  |  |  |  |  |  | < 100 | IC50 [1, 9]: 100 to 1000 nM; IC50 [2, 10]: 100 to 1000 nM |
| C[C@@H]1[C@H](N(C)c2nc(OC[C@@]34CCCN3C[C@H](F)C4)nc3c(F)c(-c4ccc(F)c5sc(N)c(C#N)c45)c(C(F)(F)F)cc23)CCN1C(=O)C1CC1 [Compound 258] |  |  |  |  |  |  |  |  |  | < 100 | IC50 [1, 9]: < 100 nM; IC50 [2, 10]: 100 to 1000 nM |
| CCC(=O)N1CC[C@@H](N(C)c2nc(OC[C@@]34CCCN3C[C@H](F)C4)nc3c(F)c(-c4ccc(F)c5sc(N)c(C#N)c45)c(C(F)(F)F)cc23)[C@H]1C [Compound 260] |  |  |  |  |  |  |  |  |  |  | IC50 [1, 9]: < 100 nM; IC50 [2, 10]: 100 to 1000 nM; IC50 ([3]; pERK HTRF): < 100 nM |
| CCN(c1nc(OC[C@@]23CCCN2C[C@H](F)C3)nc2c(F)c(-c3ccc(F)c4sc(N)c(C#N)c34)c(Cl)cc12)[C@@H]1CCN(C(C)=O)[C@@H]1C [Compound 323] | 100 to 1000 | 100 to 1000 |  |  |  |  |  |  |  | < 100 |  |
| CCN(c1nc(OC[C@@]23CCCN2C[C@H](F)C3)nc2c(F)c(-c3ccc(F)c4sc(N)c(C#N)c34)c(Cl)cc12)[C@@H]1CCN(C(=O)C2CC2)[C@@H]1C [Compound 337] | 100 to 1000 | 100 to 1000 |  |  |  |  |  |  |  | < 100 |  |
| CN(Cc1cccnc1N)c1nc(OC[C@@]23CCCN2C[C@H](F)C3)nc2c(F)c(-c3ccc(F)c4sc(N)c(C#N)c34)c(C(F)(F)F)cc12 [Compound 390] | 100 to 1000 | < 100 |  |  |  |  |  |  |  | < 100 |  |
| N#Cc1cnn2c1CN(c1nc(OC[C@@]34CCCN3C[C@H](F)C4)nc3c(F)c(-c4ccc(F)c5sc(N)c(C#N)c45)c(C(F)(F)F)cc13)CC2 [Compound 392] | 100 to 1000 | 100 to 1000 |  |  |  |  |  |  |  | < 100 |  |
| CC(=O)N1CC[C@@H](N(C)c2nc(OC[C@@]34CCCN3C[C@H](F)C4)nc3c(F)c(-c4ccc(F)c5sc(N)c(C#N)c45)c(Cl)cc23)[C@H]1C [Compound 398] | 100 to 1000 | 100 to 1000 |  |  |  |  |  |  |  | < 100 |  |
| C[C@@H]1[C@H](N(C)c2nc(OC[C@@]34CCCN3C[C@H](F)C4)nc3c(F)c(-c4ccc(F)c5sc(N)c(C#N)c45)c(C(F)(F)F)cc23)CC(=O)N1C [Compound 440] | 100 to 1000 | 100 to 1000 |  |  |  |  |  |  |  | < 100 |  |
| CCC(=O)N1C[C@@H](N(CC)c2nc(OC[C@@]34CCCN3C[C@H](F)C4)nc3c(F)c(-c4ccc(F)c5sc(N)c(C#N)c45)c(C(F)(F)F)cc23)C[C@H]1C [Compound 442] | 100 to 1000 | 100 to 1000 |  |  |  |  |  |  |  | < 100 |  |
| CCN(c1nc(OC[C@@]23CCCN2C[C@H](F)C3)nc2c(F)c(-c3ccc(F)c4sc(N)c(C#N)c34)c(C(F)(F)F)cc12)[C@H]1C[C@H](C)N(C(C)=O)C1 [Compound 463] | < 100 | < 100 |  |  |  |  |  |  |  | < 100 |  |
| CCN(c1nc(OCC23CCCN2CC(F)C3)nc2c(F)c(-c3ccc(F)c4sc(N)c(C#N)c34)c(C(F)(F)F)cc12)C1CC(C)N(C(=O)N2CC(F)C2)C1 (stereo not drawn) [Compound 759] |  |  |  |  |  |  | < 100 | < 100 |  |  | IC50 ([3]; pERK HTRF, class symbols): < 100 nM |
